In patent publication US20210189342A1, “COMPOSITIONS AND METHODS FOR MODULATING MONOCYTE AND MACROPHAGE INFLAMMATORY PHENOTYPES AND IMMUNOTHERAPY USES THEREOF” (Verseau Therapeutics, Inc., priority 2018, published 2021):
pIC50: −log10 of the molar value.

Each substance was assayed on SIGLEC9 (assay: siRNA dose response, SIGLEC9 mRNA knockdown, Dual-Glo Luciferase Assay). Conditions: Hepa1-6 + reporter plasmid, 24 hr.
Type: cell-based, human
Procedure: (§1) Dose response curves for siRNAs were generated in vitro using a variety of cell lines according to Table 4.
(§2) Briefly, cells were seeded in 96-well plates and reverse transfected with siRNA, Lipofectamine® 2000 (0.5 uL/well; ThermoFisher), and, in some cases, a reporter plasmid (50 ng/well). The reporter plasmid (psiCHECK™-2, Promega) encoded both firefly luciferase and the gene of interest fused to renilla luciferase; silencing of the gene of interest results in proportional silencing of renilla luciferase but leaves firefly luciferase unaffected as an internal control.
(§3) After 24 hr incubation at 37° C., mRNA knockdown was measured using an endpoint assay. For targets without a reporter plasmid, a branched DNA (bDNA) assay was performed according to the manufacturer's instructions (QuantiGene® Singleplex Gene Expression Assay, ThermoFisher) to measure both the target gene and GAPDH (housekeeping gene) mRNA. Data are plotted as siRNA concentration (nM) vs. remaining mRNA (ratio of target gene to GAPDH, normalized to mock siRNA-transfected cells). For targets with a reporter plasmid, a Dual-Glo® Luciferase Assay was performed according to the manufacturer's instructions (Promega) to measure firefly and renilla luciferase expression. Data are plotted as siRNA concentration (nM) vs. remaining mRNA (ratio of renilla to firefly luminescence, normalized to mock siRNA-transfected cells).
(§4) For all dose response curves, a 4-parameter logistic model was applied to determine the IC50 of each siRNA sequence (Table 5 and FIG. 2). Data shown in Table 5 and FIG. 2 represent the mean of quadruplicates, +/−standard deviation.

| Substance | pIC50 |
| --- | --- |
| XD-09180: siRNA targeting SIGLEC9 (sense 5'-acAAGuAAAcuGcuGacGAdTsdT-3'; antisense 5'-UCGUcAGcAGUUuACUUGUdTsdT-3'; RNA with 2'-O-methyl and phosphorothioate modifications, case key not given here, as printed in the source, key not given here) | 10.40 |
| XD-09181: siRNA targeting SIGLEC9 (sense 5'-guAAAcuGcuGAcgAuGcAdTsdT-3'; antisense 5'-UGcAUCGUcAGcAGUUuACdTsdT-3'; RNA with 2'-O-methyl and phosphorothioate modifications, case key not given here, as printed in the source, key not given here) | 9.54 |
| XD-09182: siRNA targeting SIGLEC9 (sense 5'-ucGcAuGGcuGGAuuuAccdTsdT-3'; antisense 5'-GGuAAAUCcAGCcAUGCGAdTsdT-3'; RNA with 2'-O-methyl and phosphorothioate modifications, case key not given here, as printed in the source, key not given here) | 9.08 |
| XD-09183: siRNA targeting SIGLEC9 (sense 5'-guuccGGGAAGGGgccAAudTsdT-3'; antisense 5'-AUUGGCCCCUUCCCGGAACdTsdT-3'; RNA with 2'-O-methyl and phosphorothioate modifications, case key not given here, as printed in the source, key not given here) | 9.64 |
| XD-09184: siRNA targeting SIGLEC9 (sense 5'-ggGccAAuAcAGAccAGGAdTsdT-3'; antisense 5'-UCCUGGUCUGuAUUGGCCCdTsdT-3'; RNA with 2'-O-methyl and phosphorothioate modifications, case key not given here, as printed in the source, key not given here) | 9.90 |
| XD-09185: siRNA targeting SIGLEC9 (sense 5'-ccAGAAGAAGuGAuGcGGGdTsdT-3'; antisense 5'-CCCGcAUcACUUCUUCUGGdTsdT-3'; RNA with 2'-O-methyl and phosphorothioate modifications, case key not given here, as printed in the source, key not given here) | 10.03 |
| XD-09186: siRNA targeting SIGLEC9 (sense 5'-ucAccGGcucucuguGAAudTsdT-3'; antisense 5'-AUUcAcAGAGAGCCGGUGAdTsdT-3'; RNA with 2'-O-methyl and phosphorothioate modifications, case key not given here, as printed in the source, key not given here) | 9.31 |
| XD-09187: siRNA targeting SIGLEC9 (sense 5'-gaccAcGaacAAGaccGucdTsdT-3'; antisense 5'-GACGGUCUUGUUCGUGGUCdTsdT-3'; RNA with 2'-O-methyl and phosphorothioate modifications, case key not given here, as printed in the source, key not given here) | 9.39 |
| XD-09188: siRNA targeting SIGLEC9 (sense 5'-gaAcAAGAccGuccAucucdTsdT-3'; antisense 5'-GAGAUGGACGGUCUUGUUCdTsdT-3'; RNA with 2'-O-methyl and phosphorothioate modifications, case key not given here, as printed in the source, key not given here) | 9.83 |
| XD-09189: siRNA targeting SIGLEC9 (sense 5'-agAccGuccAucucAAcGudTsdT-3'; antisense 5'-ACGUUGAGAUGGACGGUCUdTsdT-3'; RNA with 2'-O-methyl and phosphorothioate modifications, case key not given here, as printed in the source, key not given here) | 9.16 |
| XD-09190: siRNA targeting SIGLEC9 (sense 5'-ccGuccAucucAAcGuGucdTsdT-3'; antisense 5'-GAcACGUUGAGAUGGACGGdTsdT-3'; RNA with 2'-O-methyl and phosphorothioate modifications, case key not given here, as printed in the source, key not given here) | 9.04 |
| XD-09192: siRNA targeting SIGLEC9 (sense 5'-caGuAuccAcAGucuuGGGdTsdT-3'; antisense 5'-CCcAAGACUGUGGAuACUGdTsdT-3'; RNA with 2'-O-methyl and phosphorothioate modifications, case key not given here, as printed in the source, key not given here) | 9.63 |
| XD-09193: siRNA targeting SIGLEC9 (sense 5'-guAuccAcAGucuuGGGAAdTsdT-3'; antisense 5'-UUCCcAAGACUGUGGAuACdTsdT-3'; RNA with 2'-O-methyl and phosphorothioate modifications, case key not given here, as printed in the source, key not given here) | 9.34 |
| XD-09194: siRNA targeting SIGLEC9 (sense 5'-cucAGcAGGucuAccuGAAdTsdT-3'; antisense 5'-UUcAGGuAGACCUGCUGAGdTsdT-3'; RNA with 2'-O-methyl and phosphorothioate modifications, case key not given here, as printed in the source, key not given here) | 8.25 |
| XD-09195: siRNA targeting SIGLEC9 (sense 5'-gcGuGGGAGAuAcgGGcAudTsdT-3'; antisense 5'-AUGCCCGuAUCUCCcACGCdTsdT-3'; as printed in the source, key not given here) | 9.90 |
| XD-09197: siRNA targeting SIGLEC9 (sense 5'-ggAGAuAcGGGcAuAGAGGdTsdT-3'; antisense 5'-CCUCuAUGCCCGuAUCUCCdTsdT-3'; as printed in the source, key not given here) | 9.07 |

The substances below were run on CD84 (assay: siRNA dose response, CD84 mRNA knockdown, Dual-Glo Luciferase Assay). Conditions: Hepa1-6 + reporter plasmid, 24 hr.
Type: cell-based, human
Procedure: as §1, §2, §3, §4

| Substance | pIC50 |
| --- | --- |
| XD-09610: siRNA targeting CD84 (sense 5'-accAAAAAuuAcAcAGAGudTsdT-3'; antisense 5'-ACUCUGUGuAAUUUUUGGUdTsdT-3'; as printed in the source, key not given here) | 10.33 |
| XD-09611: siRNA targeting CD84 (sense 5'-gaGGGuAAuGuccuucAAAdTsdT-3'; antisense 5'-UUUGAAGGAcAUuACCCUCdTsdT-3'; as printed in the source, key not given here) | 10.09 |
| XD-09612: siRNA targeting CD84 (sense 5'-gguAAuGuccuucaAAucudTsdT-3'; antisense 5'-AGAUUUGAAGGAcAUuACCdTsdT-3'; as printed in the source, key not given here) | 9.45 |
| XD-09613: siRNA targeting CD84 (sense 5'-ucAuAuGAucAuuuAAGGAdTsdT-3'; antisense 5'-UCCUuAAAUGAUcAuAUGAdTsdT-3'; RNA with 2'-O-methyl and phosphorothioate modifications, case key not given here, as printed in the source, key not given here) | 9.62 |
| XD-09614: siRNA targeting CD84 (sense 5'-gaAcAcAGuuuAuuccGAAdTsdT-3'; antisense 5'-UUCGGAAuAAACUGUGUUCdTsdT-3'; as printed in the source, key not given here) | > 11.30 |
| XD-09615: siRNA targeting CD84 (sense 5'-ggAAcuGGGuAuAauccAAdTsdT-3'; antisense 5'-UUGGAUuAuACCcAGUUCCdTsdT-3'; as printed in the source, key not given here) | 10.32 |
| XD-09616: siRNA targeting CD84 (sense 5'-gcAccAAcuAccAuuAGcAdTsdT-3'; antisense 5'-AGCuAAUGGuAGUUGGUGCdTsdT-3'; RNA with 2'-O-methyl and phosphorothioate modifications, case key not given here, as printed in the source, key not given here) | 10.17 |
| XD-09617: siRNA targeting CD84 (sense 5'-cacuAcAGuuAAcgcuGAAdTsdT-3'; antisense 5'-UUcAGCGUuAACUGuAGUGdTsdT-3'; as printed in the source, key not given here) | 11.00 |
| XD-09618: siRNA targeting CD84 (sense 5'-gguAucAGGAAucaAAAuudTsdT-3'; antisense 5'-AAUUUUGAUUCCUGAuACCdTsdT-3'; as printed in the source, key not given here) | > 11.30 |
| XD-09619: siRNA targeting CD84 (sense 5'-ccuuAcAGcAuAAcuAAuudTsdT-3'; antisense 5'-AAUuAGUuAUGCUGuAAGGdTsdT-3'; RNA with 2'-O-methyl and phosphorothioate modifications, case key not given here, as printed in the source, key not given here) | > 11.30 |
